Calls of active or inactive are those of the source. The calls are words filed in the database; no cut-off is given here.
Key:
[1] = test system: A549; experiment: cells; details: Homo sapiens, A549, 48 h
[2] = molecular target: T1, Substance-P receptor (Homo sapiens, UniProt P25103); experiment: Antagonist activity at His6-tagged NK1 receptor (unknown origin) expressed in CHO cells assessed as inhibition of substance-P-induced IP1 accumulation at 10^-5 M preincubated for 10 mins followed by substance-P addition measured after 30 mins by HTRF-FRET assay relative to control; assay type: functional, cell-based
[3] = test system: MRC5; experiment: cells; details: Homo sapiens, MRC5, 48 h
Description: Cytotoxicity against human MRC5 cells after 48 hrs by MTT assay

[4] = molecular target: T1, Substance-P receptor; experiment: Antagonist activity at His6-tagged NK1 receptor (unknown origin) expressed in CHO cells assessed as inhibition of substance-P-induced IP1 accumulation at 5 x 10^-5M preincubated for 10 mins followed by substance-P addition measured after 30 mins by HTRF-FRET assay relative to control; assay type: functional, cell-based
[5] = molecular target: T1, Substance-P receptor; experiment: Partial agonist activity at His6-tagged NK1 receptor (unknown origin) expressed in CHO cells assessed as IP1 accumulation measured after 30 mins by HTRF-FRET assay; assay type: functional, cell-based
[6] = molecular target: T1, Substance-P receptor; experiment: Partial agonist activity at His6-tagged NK1 receptor (unknown origin) expressed in CHO cells assessed as IP1 accumulation at 10^-5 M measured after 30 mins by HTRF-FRET assay relative to control; assay type: functional, cell-based
[7] = molecular target: T1, Substance-P receptor; experiment: Partial agonist activity at His6-tagged NK1 receptor (unknown origin) expressed in CHO cells assessed as IP1 accumulation at 5 x 10^-5M measured after 30 mins by HTRF-FRET assay relative to control; assay type: functional, cell-based
[8] = molecular target: T1, Substance-P receptor; details: CHO, 10^-7 M
Description: Antagonist activity at His6-tagged NK1 receptor (unknown origin) expressed in CHO cells assessed as inhibition of substance-P-induced IP1 accumulation at 10^-7 M preincubated for 10 mins followed by substance-P addition measured after 30 mins by HTRF-FRET assay relative to control

[9] = test system: A549; experiment: Cytotoxicity against human A549 cells assessed as cell viability at 320 uM after 48 hrs by MTT assay relative to control; assay type: functional; details: A549, 48 h, read-out: Activity
[10] = Cytotoxicity against human MRC5 cells assessed as cell viability at 320 uM after 48 hrs by MTT assay relative to control; assay type: cell-based; details: read-out: Activity
[11] = molecular target: T1, Substance-P receptor; experiment: Antagonist activity at His6-tagged NK1 receptor (unknown origin) expressed in CHO cells assessed as inhibition of substance-P-induced IP1 accumulation preincubated for 10 mins followed by substance-P addition measured after 30 mins by HTRF-FRET assay
[12] = test system: A549; experiment: Cytotoxicity against human A549 cells assessed as cell death at greater than antiproliferative IC50 after 48 hrs by MTT assay relative to control; assay type: functional
[13] = test system: MRC5; experiment: Cytotoxicity against human MRC5 cells assessed as cell death at greater than cytotoxic IC50 after 48 hrs by MTT assay relative to control; assay type: cell-based; details: mrc5, 48 h
[14] = test system: A549; experiment: Growth inhibition of human A549 cells at 10^3 uM after 48 hrs by MTT assay relative to control; assay type: functional
[15] = test system: A549; experiment: Growth inhibition of human A549 cells at 1 mM by inverted microscopic method; assay type: functional, cell-based
[16] = Cytotoxicity against human MRC5 cells assessed as cell growth inhibition at 10^3 uM after 48 hrs by MTT assay relative to control; assay type: cell-based; details: read-out: GI

T1 sequence (P25103 whole entry): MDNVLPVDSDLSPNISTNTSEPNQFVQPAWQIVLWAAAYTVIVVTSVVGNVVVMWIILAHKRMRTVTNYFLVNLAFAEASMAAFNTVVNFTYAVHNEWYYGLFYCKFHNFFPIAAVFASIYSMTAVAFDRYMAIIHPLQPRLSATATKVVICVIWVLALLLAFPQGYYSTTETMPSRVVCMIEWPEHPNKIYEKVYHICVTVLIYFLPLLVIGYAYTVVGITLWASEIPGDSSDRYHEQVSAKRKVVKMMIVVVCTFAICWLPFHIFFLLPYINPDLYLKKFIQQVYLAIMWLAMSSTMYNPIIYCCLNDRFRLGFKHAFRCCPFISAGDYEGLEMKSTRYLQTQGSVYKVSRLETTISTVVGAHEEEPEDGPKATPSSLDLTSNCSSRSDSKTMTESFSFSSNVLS

SMILES	inhibition [2] [%]	inhibition [4] [%]	further results
Cc1ccc([S@@+]([O-])C2=C(c3ccccn3)OC(N)=C(C#N)[C@@H]2c2ccccc2)cc1	28.8	20.9	IC50 [1]: 196 µM; IC50 [3]: 425 µM
Cc1ccc([S@+]([O-])C2=C(c3ccccn3)OC(N)=C(C#N)[C@H]2c2ccc([N+](=O)[O-])cc2)cc1	43.3	49.7	
N#CC1=C(N)OC(c2ccccn2)=C([S+]([O-])c2ccccc2)C1c1ccc([N+](=O)[O-])cc1 (racemic)	33.5	45.9	
CC(O)C(=O)O (configuration not stated) [LACTIC ACID]			IC50 [1]: 26.6 µM; IC50 [3]: 23.9 µM
Cc1ccc(SC2=C(c3ccccn3)OC(NC(=O)C(F)(F)F)=C(C#N)[C@H]2c2ccc([N+](=O)[O-])cc2)cc1		23.8	EC50 [5]: 350 µM; Activity [6]: 25.9%; Activity [7]: 62.3%
CC(=O)NC1=C(C#N)[C@H](c2ccc(C)cc2)C([S@+]([O-])c2ccc(C)cc2)=C(c2ccccn2)O1	21.4	37.1	Activity [7]: 30.4%
Cc1ccc([S@@+]([O-])C2=C(c3ccccn3)OC(N)=C(C#N)[C@@H]2c2ccc(F)cc2)cc1		11.2	
CC(=O)NC1=C(C#N)[C@@H](c2ccc(C)cc2)C([S@@+]([O-])c2ccc(C)cc2)=C(c2ccccn2)O1	33.3	47.2	IC50 [1]: 108 µM; IC50 [3]: 136 µM; Activity [6]: 19.8%; Activity [7]: 30.4%
Cc1ccc([S@+]([O-])C2=C(c3ccccn3)OC(N)=C(C#N)[C@H]2c2cc(C(F)(F)F)cc(C(F)(F)F)c2)cc1	30	28.6	
Cc1ccc([S+]([O-])C2=C(c3ccccn3)OC(N)=C(C#N)C2c2ccc(F)cc2)cc1 (racemic)		2.51	
COc1ccccc1CN[C@H]1C2CCN(CC2)[C@H]1C(c1ccccc1)c1ccccc1 [CP-96345]			IC50 [1]: 46.8 µM; inhibition [8]: 85.3%; IC50 [3]: 57.9 µM
COc1ccc([C@@H]2C(C#N)=C(N)OC(c3ccccn3)=C2[S@@+]([O-])c2ccc(C)cc2)cc1	34.5	43.9	IC50 [1]: 156 µM; viability at 320 µM [9]: 7%; IC50 [3]: 430 µM; viability at 48 h, 320 µM [10]: 70%
Cc1ccc([S+]([O-])C2=C(c3ccccn3)OC(N)=C(C#N)C2c2ccccc2)cc1 (racemic)	35	24.4	
Cc1ccc(SC2=C(c3ccccn3)OC(NC(=O)C(F)(F)F)=C(C#N)[C@H]2c2ccccc2)cc1	6.93	36.8	Activity [6]: 13.5%; Activity [7]: 34.2%
Cc1ccc(C2C(C#N)=C(N)OC(c3ccccn3)=C2[S+]([O-])c2ccc(C)cc2)cc1 (racemic)	32.8	32.2	
Cc1ccc([S@+]([O-])C2=C(c3ccccn3)OC(N)=C(C#N)[C@H]2c2ccc(Cl)cc2)cc1	30	21	
N#CC1=C(N)OC(c2ccccn2)=C([S+]([O-])c2ccc([N+](=O)[O-])cc2)C1c1ccccc1 (racemic)		56.6	
N#CC1=C(N)OC(c2ccccn2)=C(S(=O)(=O)c2ccccc2)C1c1ccc([N+](=O)[O-])cc1 (racemic)	45.5	68.5	IC50 [1]: 148 µM; IC50 [11]: 200 µM; IC50 [3]: 140 µM
Cc1ccc([S@+]([O-])C2=C(c3ccccn3)OC(N)=C(C#N)[C@H]2c2ccccc2)cc1	42	51.1	IC50 [1]: 172 µM; Activity [12]: <=80%; IC50 [3]: 132 µM; Activity [13]: < 30%
N#CC1=C(N)OC(c2ccccn2)=C([S+]([O-])c2ccc([N+](=O)[O-])cc2)C1c1ccc(Cl)cc1 (racemic)		32.2	
Cc1ccc([C@H]2C(C#N)=C(N)OC(c3ccccn3)=C2[S@+]([O-])c2ccc(C)cc2)cc1	37.5	23.7	
N#CC1=C(N)OC(c2ccccn2)=C([S+]([O-])c2ccccc2)C1c1ccccc1 (racemic)	32	19.8	
Cc1ccc(C2C(C#N)=C(N)OC(c3cc(C(F)(F)F)cc(C(F)(F)F)c3)=C2[S+]([O-])c2ccc(C)cc2)cc1 (racemic)		11.5	
COc1ccc(C2C(C#N)=C(N)OC(c3ccccn3)=C2[S+]([O-])c2ccccc2)cc1 (racemic)		11.1	

Second part, led by results:

inhibition [2] [%]	inhibition [4] [%]	SMILES	further results
37	50.8	Cc1ccc([C@@H]2C(C#N)=C(N)OC(c3ccccn3)=C2[S@@+]([O-])c2ccc(C)cc2)cc1	
	5.8	Cc1ccc([S@@+]([O-])C2=C(c3ccccn3)OC(N)=C(C#N)[C@@H]2c2ccc(Cl)cc2)cc1	
30	28.9	Cc1ccc([S+]([O-])C2=C(c3ccccn3)OC(N)=C(C#N)C2c2ccc([N+](=O)[O-])cc2)cc1 (racemic)	
	12.5	Cc1ccc([S+]([O-])C2=C(c3ccco3)OC(N)=C(C#N)C2c2ccc(Cl)cc2)cc1 (racemic)	
	38.1	Cc1ccc(C2C(C#N)=C(N)OC(c3ccccn3)=C2[S+]([O-])c2ccc([N+](=O)[O-])cc2)cc1 (racemic)	
35.6	56.1	N#CC1=C(N)OC(c2ccccn2)=C([S+]([O-])c2ccc([N+](=O)[O-])cc2)C1c1ccc([N+](=O)[O-])cc1 (racemic)	IC50 [1]: 536 µM; IC50 [3]: 825 µM
18.5	20.6	Cc1ccc([S@@+]([O-])C2=C(c3ccccn3)OC(N)=C(C#N)[C@@H]2c2ccc([N+](=O)[O-])cc2)cc1	
-4.43	28.1	COc1ccc([C@H]2C(C#N)=C(N)OC(c3ccccn3)=C2[S@+]([O-])c2ccc(C)cc2)cc1	IC50 [1]: 508 µM; growth inhibition (GI) [14]: 100%; growth inhibition (GI) [15]: Active; inhibition at 48 h, 1000 uM [16]: 30%
13.9	15.8	Cc1ccc([S+]([O-])C2=C(c3ccccn3)OC(N)=C(C#N)C2c2ccc(Cl)cc2)cc1 (racemic)	
	21	Cc1ccc([S@+]([O-])C2=C(c3ccccn3)OC(N)=C(C#N)[C@H]2c2ccc(F)cc2)cc1	
